ChEMBL document CHEMBL1130376, “Effects of taxoids from Taxus cuspidata on microtubule depolymerization and vincristine accumulation in MDR cells” (Bioorg Med Chem Lett, 1997)
In brackets after ≈: the same amount, converted by molar mass.

Tests used:
[1] = Cytotoxicity against human epidermoid carcinoma KB cells; assay type: functional, cell-based
L1210 = assay: Cytotoxicity against murine leukemia L1210 cells; assay type: functional, cell-based, Mus musculus; settings: Mus musculus, L1210; read-out: IC50
[2] = Vincristine (VCR) accumulation in multidrug resistant human ovarian cancer 2780 AD cells at a concentration 1 ug/mL; assay type: functional
[3] = Vincristine (VCR) accumulation in multidrug resistant human ovarian cancer 2780 AD cells at a concentration 10 ug/mL; assay type: functional
[4] = molecular target: Tubulin alpha chain (Sus scrofa) (UniProt P02550); assay: Tested for inhibitory concentration against […]-induced depolymerization of microtubules; assay type: functional
Chain of Tubulin alpha chain (Sus scrofa) (P02550 whole entry, looked up): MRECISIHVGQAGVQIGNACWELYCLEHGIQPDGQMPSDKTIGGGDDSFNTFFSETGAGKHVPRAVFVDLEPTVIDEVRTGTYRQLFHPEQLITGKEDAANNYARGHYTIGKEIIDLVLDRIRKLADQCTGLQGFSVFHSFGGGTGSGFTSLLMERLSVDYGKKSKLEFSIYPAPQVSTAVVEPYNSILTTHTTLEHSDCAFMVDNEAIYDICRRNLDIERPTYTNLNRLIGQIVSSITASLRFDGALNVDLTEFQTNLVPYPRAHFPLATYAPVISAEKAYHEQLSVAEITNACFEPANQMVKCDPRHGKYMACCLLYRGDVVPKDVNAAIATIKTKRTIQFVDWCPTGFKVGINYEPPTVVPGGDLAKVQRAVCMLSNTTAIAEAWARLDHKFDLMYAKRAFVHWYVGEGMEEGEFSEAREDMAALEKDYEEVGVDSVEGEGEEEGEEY

| Concentration [4] [µM] | Compound | IC50 [1] [µg/mL] | IC50 (L1210) [µg/mL] | vincristine accumulation (% of control) [2] [%] | vincristine accumulation (% of control) [3] [%] |
| --- | --- | --- | --- | --- | --- |
|  | C=C1[C@@H](OC(=O)/C=C/c2ccccc2)C[C@H](OC(C)=O)[C@@]2(CO)[C@@H](OC(C)=O)[C@H](OC(C)=O)[C@]3(O)[C@@]4(C)CO[C@]3(C)C(=O)C[C@H]4[C@@H](OC(C)=O)[C@H]12 [TAXUSPINE S] | 0.26 (≈ 0.365 µM) | 3.8 (≈ 5.33 µM) | 136 | 190 |
|  | CC(=O)O[C@H]1[C@@H]2[C@H](CO)[C@@H](OC(C)=O)C[C@H](OC(C)=O)[C@@]2(C)[C@@H](OC(C)=O)[C@H](OC(C)=O)C2=C(C)[C@@H](OC(C)=O)C[C@@H]1C2(C)C | 4.5 (≈ 7.05 µM) | 10 (≈ 15.7 µM) | 177 | 264 |
| 10 | CC(=O)O[C@H]1C(=O)[C@@]2(C)[C@H]([C@H](OC(=O)c3ccccc3)[C@]3(O)C[C@H](OC(=O)[C@H](O)[C@@H](NC(=O)c4ccccc4)c4ccccc4)C(C)=C1C3(C)C)[C@]1(OC(C)=O)CO[C@@H]1C[C@@H]2O |  |  |  |  |
|  | C=C1[C@@H](OC(=O)/C=C/c2ccccc2)CC[C@]2(C)[C@@H]1C[C@@H]1C[C@H](OC(C)=O)C(C)=C([C@@H](OC(C)=O)[C@@H]2OC(C)=O)C1(C)C | 8.2 (≈ 13.8 µM) | 9.5 (≈ 16 µM) | 102 | 517 |
|  | C=C1[C@@H](OC(=O)/C=C/c2ccccc2)C[C@H](OC(C)=O)[C@]2(C)[C@@H]1C[C@]1(C(C)(C)O)C[C@H](OC(C)=O)C(C)=C1[C@@H](OC(C)=O)[C@@H]2OC(C)=O [TAXUSPINE J] | > 10 | > 10 | 258 | 842 |
|  | C/C=C(\C)C(=O)O[C@@H]1C2=C(C)[C@@H](O)C[C@@]2(C(C)(C)O)[C@@H](OC(C)=O)[C@@H]2[C@]3(OC(C)=O)CO[C@@H]3C[C@H](OC(C)=O)[C@@]2(C)[C@H]1OC(C)=O | 0.3 (≈ 0.461 µM) | 4 (≈ 6.15 µM) | 145 | 206 |
|  | CC(=O)O[C@@H]1C2=C(C)[C@@H](O)C[C@@]2(C(C)(C)O)[C@@H](OC(C)=O)[C@@H]2[C@]3(OC(C)=O)CO[C@@H]3C[C@H](OC(C)=O)[C@@]2(C)[C@H]1OC(C)=O | > 10 | > 10 | 147 | 235 |
|  | C=C1[C@@H](O)C[C@H](OC(C)=O)[C@@]2(C)[C@@H](OC(C)=O)[C@H](OC(=O)c3ccccc3)C3=C(C)[C@@H](O)C[C@@]3(C(C)(C)O)[C@@H](OC(C)=O)[C@H]12 [TAXCHININ A] | 0.4 (≈ 0.651 µM) | > 10 | 143 | 192 |
|  | CC(=O)O[C@H]1C[C@H]2OC[C@@]2(OC(C)=O)[C@H]2[C@H](OC(C)=O)[C@]3(C(C)(C)O)C[C@H](O)C(C)=C3[C@@H](OC(=O)c3ccccc3)[C@H](OC(C)=O)[C@]12C | > 10 | > 10 | 171 | 240 |
|  | C=C1[C@@H](O)C[C@H](OC(C)=O)[C@@]2(C)[C@@H](OC(C)=O)[C@H](OC(C)=O)C3=C(C)[C@@H](OC(C)=O)C[C@@H]([C@@H](OC(C)=O)[C@H]12)C3(C)C [DECINNAMOYLTAXININE J] | > 10 | > 10 | 207 | 363 |
|  | C=C1[C@@H](OC(=O)/C=C/c2ccccc2)C[C@H](OC(C)=O)[C@@]2(C)[C@@H](OC(C)=O)[C@H](OC(C)=O)[C@]3(O)[C@@]4(C)CO[C@]3(C)C(=O)C[C@H]4[C@@H](OC(C)=O)[C@H]12 [TAXAGIFINE] | 0.86 (≈ 1.23 µM) | 1.3 (≈ 1.87 µM) | 194 | 242 |
|  | CC(=O)O[C@@]12CO[C@@H]1C[C@@H](O)[C@@]1(C)C(=O)[C@H](O)C3=C(C)[C@@H](OC(=O)[C@H](O)C(NC(=O)c4ccccc4)c4ccccc4)C[C@@](O)([C@@H](OC(=O)c4ccccc4)[C@H]21)C3(C)C (stereo not given in full) | 0.013 (≈ 0.016 µM) | 0.71 (≈ 0.875 µM) | 192 | 218 |
|  | C=C1[C@@H](O)C[C@H](OC(C)=O)[C@@]2(COC(=O)c3ccccc3)[C@@H](OC(C)=O)[C@H](OC(C)=O)[C@]3(O)[C@@]4(C)CO[C@]3(C)C(=O)C[C@H]4[C@@H](OC(C)=O)[C@H]12 [TAXININ M] | 9.4 (≈ 13.7 µM) | > 10 | 115 | 169 |
|  | C=C1[C@@H](OC(=O)/C=C/c2ccccc2)C[C@H](OC(C)=O)[C@@]2(C)[C@@H](OC(C)=O)[C@H](OC(C)=O)C3=C(C)C(=O)C[C@@H]([C@@H](OC(C)=O)[C@H]12)C3(C)C | > 10 | > 10 | 116 | 438 |
|  | C=C1[C@@H](O)C[C@H](OC(C)=O)[C@@]2(COC(C)=O)[C@@H](OC(C)=O)[C@H](OC(C)=O)[C@]3(O)[C@@]4(C)CO[C@]3(C)C(=O)C[C@H]4[C@@H](OC(C)=O)[C@H]12 | > 10 | > 10 | 142 | 198 |
|  | C=C1[C@@H](OC(=O)/C=C/c2ccccc2)CC[C@@]2(C)[C@@H](OC(C)=O)[C@H](OC(C)=O)[C@@]34[C@H](C)C(=O)C[C@@H]([C@@H](OC(C)=O)C132)C4(C)C (stereo not given in full) | > 10 | 5.8 (≈ 9.56 µM) | 246 | 768 |
|  | CC(=O)OC[C@H]1[C@H]2[C@H](O)[C@]3(O)C[C@H](OC(C)=O)C(C)=C([C@@H](OC(C)=O)[C@H](OC(C)=O)[C@]2(C)[C@@H](OC(C)=O)C[C@@H]1OC(C)=O)C3(C)C | > 10 | 4.6 (≈ 7.03 µM) | 147 | 208 |
|  | C=C1[C@@H](OC(=O)CC(c2ccccc2)N(C)C)C[C@H](OC(C)=O)[C@]2(C)[C@@H]1C[C@@H]1C[C@H](OC(C)=O)C(C)=C([C@@H](OC(C)=O)[C@@H]2OC(C)=O)C1(C)C (stereo not given in full) | > 10 | 7.2 (≈ 10.3 µM) | 233 | 841 |
|  | C=C1[C@@H](O)C[C@H](OC(C)=O)[C@@]2(C)[C@@H](OC(C)=O)[C@H](OC(C)=O)C3=C(C)C(=O)C[C@@H]([C@@H](OC(C)=O)[C@H]12)C3(C)C | > 10 | > 10 | 141 | 257 |
|  | C=C1[C@@H](OC(=O)CC(c2ccccc2)N(C)C)CC[C@]2(C)[C@@H]1C[C@@H]1C[C@H](OC(C)=O)C(C)=C([C@@H](OC(C)=O)[C@@H]2OC(C)=O)C1(C)C (stereo not given in full) | > 10 | > 10 | 250 | 882 |
|  | C=C1[C@@H](OC(=O)/C=C/c2ccccc2)C[C@H](OC(C)=O)[C@@]2(C)[C@@H](OC(C)=O)[C@H](OC(C)=O)[C@@]3(O)C(C)=C(OC(C)=O)C[C@@H]([C@@H](OC(C)=O)[C@H]12)C3(C)C | 1.8 (≈ 2.48 µM) | 3 (≈ 4.14 µM) | 133 | 325 |
|  | C=C1[C@@H](OC(=O)/C=C/c2ccccc2)CC[C@@]2(C)[C@@H](OC(C)=O)[C@H](OC(C)=O)C3=C(C)C(=O)C[C@@](O)([C@@H](OC(C)=O)[C@H]12)C3(C)C | 6.9 (≈ 11.1 µM) | 4.6 (≈ 7.39 µM) | 167 | 436 |
|  | CC(=O)O[C@H]1C[C@@]2(O)[C@H]3OC[C@]4(OC(C)=O)[C@H](O)C[C@H](OC(C)=O)[C@](C)([C@H]34)[C@@H](OC(C)=O)[C@H](OC(C)=O)C(=C1C)C2(C)C | 8.8 (≈ 14.4 µM) | 4.5 (≈ 7.37 µM) | 167 | 234 |
|  | C=C1[C@@H](OC(=O)/C=C/c2ccccc2)C[C@H](OC(C)=O)[C@]2(C)[C@@H]1C[C@]1(C(C)(C)O)C[C@H](OC(C)=O)C(C)=C1[C@@H](OC(=O)c1ccccc1)[C@@H]2OC(C)=O [TAXUSPINE A] | > 10 | 4.2 (≈ 5.76 µM) | 142 | 246 |
|  | C=C1[C@@H](OC(=O)/C=C/c2ccccc2)C[C@H](OC(C)=O)[C@@]2(COC(=O)c3ccccc3)[C@@H](OC(C)=O)[C@H](OC(C)=O)[C@]3(O)[C@@]4(C)CO[C@]3(C)C(=O)C[C@H]4[C@@H](OC(C)=O)[C@H]12 | > 10 | > 10 | 169 | 537 |
|  | C=C1[C@@H](OC(=O)/C=C/c2ccccc2)C[C@H](OC(C)=O)[C@]2(C)[C@@H]1C[C@@H]1C[C@H](OC(C)=O)C(C)=C([C@@H](OC(C)=O)[C@@H]2OC(C)=O)C1(C)C | > 10 | 4.9 (≈ 7.53 µM) | 266 | 798 |
|  | CC(=O)O[C@H]1C[C@@]2(O)[C@@H](OC(C)=O)[C@@H]3[C@@]4(CO4)[C@@H](OC(C)=O)C[C@H](OC(C)=O)[C@@]3(C)[C@@H](OC(C)=O)[C@H](OC(C)=O)C(=C1C)C2(C)C | > 10 | > 10 | 119 | 135 |
